Assay results from PubChem BioAssay (NCI).
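Where inhibition never reached the appropriate level, the endpoint shown equals the highest concentration tested. Otherwise, values were interpolated linearly from a five-concentration, 48-hour dose response in 96-well plates. GI50 = concentration required for 50% inhibition of growth. TGI marks complete inhibition of growth.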

Assays:
Experiment in all cases: growth of human tumour cells (NCI), 48 h
[1] = tested on: NCI-H522 lung
[2] = tested on: MOLT-4 leukemia
[3] = tested on: UO-31 renal
[4] = tested on: IGROV1 ovarian
[5] = tested on: A549 NSCLC
[6] = tested on: U251 CNS
[7] = tested on: NCI-H23 lung
[8] = tested on: SK-OV-3 ovarian
[9] = tested on: SK-MEL-2 melanoma
[10] = tested on: LOX IMVI melanoma

SMILES	GI50 [1]	TGI [1]	GI50 [2]	TGI [2]	GI50 [3]	TGI [3]	GI50 [4]	TGI [4]	GI50 [5]	TGI [5]	GI50 [6]	TGI [6]	GI50 [7]	TGI [7]	GI50 [8]	TGI [8]	GI50 [9]	TGI [9]	GI50 [10]	TGI [10]
CC(C)(C)C#CC1=C(Br)C(=O)OC1	7.7 µM	22.5 µM	1.26 µM	5.03 µM	0.9 µM	3.22 µM	4.97 µM	23.2 µM	1.3 µM	8.73 µM	0.997 µM	> 36.5 µM	2.16 µM	19 µM	> 100 µM	> 100 µM	12.6 µM	31.7 µM	1.7 µM	> 21.2 µM
Cc1occc1C(=S)Nc1ccc(Cl)c(COC(C)(C)C)c1	–	28.6 µM	–	47.9 µM	–	26 µM	–	31 µM	–	41.8 µM	–	28.9 µM	–	35.7 µM	–	34 µM	–	33.1 µM	–	34 µM
ClCCn1c(CCl)nc2ccc(Cl)cc21	0.185 µM	0.363 µM	0.305 µM	0.81 µM	1.57 µM	3.11 µM	0.213 µM	0.476 µM	1.76 µM	4.24 µM	1.16 µM	2.7 µM	0.252 µM	0.832 µM	0.305 µM	0.853 µM	1.65 µM	3.6 µM	0.156 µM	0.317 µM
Cc1c(C(=O)/C=C/c2csc3ccccc23)[n+](=O)c2ccccc2n1[O-]	1.78 µM	3.88 µM	2.71 µM	7 µM	1.24 µM	2.56 µM	1.34 µM	3.04 µM	2.13 µM	5.25 µM	1.64 µM	3.17 µM	1.61 µM	3.49 µM	1.79 µM	4.95 µM	2.06 µM	4.23 µM	1.23 µM	2.47 µM
O=C(c1ccc(F)cc1)c1cccc(C(=O)c2ccc(F)cc2)n1	–	71.5 µM	–	> 100 µM	–	66.6 µM	–	79.3 µM	–	> 100 µM	–	44.5 µM	–	55.7 µM	–	52.5 µM	–	42.9 µM	–	> 100 µM
COc1ccc(C(=O)/C=C/c2ccc(/C=C/c3cc(OC)c(OC)c(OC)c3)cc2)cc1	3.3 µM	30.7 µM	3.49 µM	> 100 µM	4.64 µM	> 100 µM	9.24 µM	76.4 µM	4.67 µM	80.9 µM	5.09 µM	54.7 µM	5.39 µM	65.9 µM	15.6 µM	64.5 µM	18.9 µM	> 100 µM	3.76 µM	60.9 µM
CCCCCn1c(=N)n(CC(O)COc2cccc(C)c2)c2ccccc21 (stereo not given)	5.7 µM	20 µM	3.08 µM	11.1 µM	4.03 µM	17.6 µM	4.45 µM	18 µM	10.2 µM	22.9 µM	2.11 µM	4.25 µM	6.87 µM	22.5 µM	11.8 µM	24.2 µM	5.68 µM	18.4 µM	3.25 µM	11.6 µM
